Holding throughout (type): cell-based
The test system of test [1] is chicken blastodermal cells / chicken ESCs. As to the kind of experiment: Derivation and self-renewal culture of chicken ESCs from EGK.X blastodermal cells. To be noted: for emergence of morphologically undifferentiated ESC colonies: EGK.X blastodermal cells from Rhode Island Red eggs, single supplement, FIG. 8A. Here is the method:
(§1) Freshly laid avian fertile eggs at EGK.X-XII stages were kept at 16° C. before extraction. To harvest cells from yolk, a filter paper-based method was applied. Filter paper with a hole at center was placed on top of the embryo. The outer edge of the filter paper was cut together with the vitelline membranes. Embryo were then released from yolk together with the filter paper and washed in PBS solution. Next, embryo was transferred into a 15 ml tube free of the paper ring and dissociated by pipetting inside N2B27 medium. Dissociated cells were cultured in tissue plates coated with irradiated mouse embryonic fibroblast (MEF) cells as feeder layer. Basal medium used for routine ESC maintenance was N2B27 medium composed of Dulbecco's Modified Eagle Medium/Nutrient Mixture F-12 (DMEM/F12):Neuralbasal (1:1) plus 0.5×N2, 0.5×B27 supplement and 20 μg/ml ovotransferrin with the addition of 1× penicillin-streptomycin. Avian ESC self-renewal was kept with 2.5 μM IWR-1, 2 μM Gö6983, 2 μM SB431542 plus chicken LIF (10 ng/ml for ESCs and 40 ng/ml for other avian ESCs). ESCs were cultured at 38° C. in 5% CO2 with daily medium change. To passage, TrypLE was used to incubate the cells for 5 min and neutralized with basal medium in triple amount. Cells were handled with 5 ml pipette all the time to avoid dissociation into singles. Cells can be frozen in Cellbanker 2 and stored at −150° C.

Test [2] relates to avian ESCs. Description: Self-renewal of avian ESCs (species not specified). Here is the method:
as §1

The subject of test [3] is quail blastodermal cells / quail ESCs. Description: Derivation and self-renewal culture of quail ESCs. As for the experimental part: We tested whether ESCs could be derived from other avian species in OT/2i. We isolated blastodermal cells from fertilized pheasant, duck and turkey eggs and cultured them in OT/2i. […] We examined whether blocking signaling pathways involved in cardiomyocyte differentiation from pluripotent stem cells could improve ESC self-renewal.
as §1, with “ESCs were cultured at 38° C. in 5% CO2 with daily medium change. To passage, TrypLE was used to incubate the cells for 5 min and neutralized with basal medium in triple amount. Cells were handled with 5 ml pipette all the time to avoid dissociation into singles. Cells can be frozen in Cellbanker 2 and stored at −150° C.” left out

The test system of another test is ostrich ESCs. As to the kind of experiment: Derivation and self-renewal culture of ostrich ESCs. Here is the method:
as §1

Test [4] deals with avian ESCs. As to the kind of experiment: Induction of primordial germ cells (PGCs) from avian ESCs. To be noted: data not shown. The text has this: Next, we assessed the potential of chicken ESCs to differentiate into the germ cell lineage. We generated EBs from chicken ESCs and examined the expression of germ cell markers including Dazl, Cvh, Cxcr4, Sycp3 and Stra8. […] To further investigate germ cell differentiation potential of chicken ESCs, we examined the expression of key primordial germ cell (PGC) marker, DAZL by immunofluorescence staining in both undifferentiated chicken ESCs and differentiated EBs. […] A subset of cells (1-3%) in day 3-4 EBs stained positive for DAZL (FIG. 6C). DAZL expression could also be detected inside goose ESC-derived EBs (FIG. 6C).

Where two headings read alike, the source gives them in different places.

For `COc1ccc2c(c1)c(C1=C(c3c[nH]c4ccccc34)C(=O)NC1=O)cn2CCCN(C)C` [Gö6983], in test [1], the “emergence of morphologically undifferentiated ESC colonies” value was “Morphologically undifferentiated ESC colonies emerged”.

As for `O=C(Nc1cccc2cccnc12)c1ccc(N2C(=O)[C@@H]3[C@H](C2=O)[C@@H]2C=C[C@H]3C2)cc1` [IWR-1], in test [1], the “emergence of morphologically undifferentiated ESC colonies” value is on record as “Morphologically undifferentiated ESC colonies emerged”.

Take `NC(=O)c1ccc(-c2nc(-c3ccc4c(c3)OCO4)c(-c3ccccn3)[nH]2)cc1` [SB431542, 4-[4-(2H-1,3-Benzodioxol-5-yl)-5-(pyridin-2-yl)-1H-imidazol-2-yl]benzamide]: the “chicken ESC self-renewal” value in test [1] was “stabilize and proliferate chicken ESCs in long-term passages”. Moreover, the “self-renewal of avian ESCs” value in the test on avian ESCs [2] was “does not promote the self-renewal”.

As for “human LIF: human leukemia inhibitory factor”, the “quail ESC derivation and long-term self-renewal” value in test [3] is “cannot be substituted”.

For the molecule “human ortholog: human ortholog of ovotransferrin”, in test [1], the “chicken ESC self-renewal” value is reported as “could not be replaced”.

B1: chicken LIF: chicken leukemia inhibitory factor, SEQ ID NO: 2; yeast-derived recombinant (protein, listed as Gallus gallus)
chain: MRLIPAGVVPFVALLLLQRRPVSGRALLGTSSACPTNGLCRANVLEQTRRQVALLNATAQDLFSLYLKCQGEPFSSESDRLCSPSGIFFPPFHVNRTTERKEVMVAMYKLFAFLNASLGNITRDQEELNPMAKELLNRLHNTTKTTRGLISNLTCLLCKHYNIFQVDVSYGESSKDKSAFKKKQQGCQVLRKYVQVIAQAARVLLPHLSPA
In the case of B1, the “chicken ESC self-renewal” value in test [1] was “stabilize and proliferate chicken ESCs in long-term passages”. Moreover, the “quail ESC derivation and long-term self-renewal” value in test [3] is reported as “is necessary”. Moreover, the “ostrich ESC derivation, maintenance and differentiation” value with ostrich ESCs is on record as “induced differentiation”; in the test with ostrich ESCs (listed as LIF) it was “differentiating effect”.

B2: BMP4: a TGF-β superfamily ligand (protein, UniProt P12644 293-408, looked up)
Bone morphogenetic protein 4: SPKHHSQRARKKNKNCRRHSLYVDFSDVGWNDWIVAPPGYQAFYCHGDCPFPLADHLNSTNHAIVQTLVNSVNSSIPKACCVPTELSAISMLYLDEYDKVVLKNYQEMVVEGCGCR
On to B2, for which, in the test with avian ESCs [4], the “induction of PGCs” value is on record as “did not respond”.

The values above are taken from US20250163388A1, “METHODS FOR DERIVATION AND PROPAGATION OF AVIAN PLURIPOTENT STEM CELLS AND APPLICATIONS THEREOF” (UNIVERSITY OF SOUTHERN CALIFORNIA, priority 2022, published 2025).
